Structures can show the parent of a compound that is named as a salt.

Results on 11 molecules are retold here after US5945426A, “Derivatives of pyrimidine for treating acute cerebrovascular disorders” (Nippon Shinyaku Co., Ltd., priority 1994, dated 1999).

For data set [1] the following is noted: background art; cited from earlier work.
The nature of data set [2]: Acute Toxicity Study. Format: in vivo. As to the method: Male SD rats (Slc:SD, Japan SLC) were used. The rats were purchased at 7 weeks of age and the animals which went through a week-long quarantine and acclimation were used in groups of 6. The dose volume was 5 ml/kg for intraperitoneal administration and 10 ml/kg for intravenous administration. […] The drug solutions were prepared using physiological saline and filtered through a 0.22 μm bacterial filter.

In data set [3] the test system is pyramidal cells in the hippocampal CA-1 subfield. Nature of the data set: Delayed Neuronal Death (DND) Inhibitory Activity in Gerbils (transient ischemia, bilateral common carotid artery occlusion). The class given is in vivo. The note with it: for DND inhibition (score of neuronal death in the hippocampal CA-1 subfield): given at reperfusion after 5-minute ischemia, score 0 (0-10% death) to 4 (75-100% death), control 4.00, n=5, **: p < 0.01 (Wilcoxon's U test). The text has this:
Delayed Neuronal Death (DND) Inhibitory Activity in Gerbils
The delayed neuronal death protective effect of the compound of the invention was confirmed by an experiment using gerbils. This test is the most widely used for all relevant in vivo evaluation protocols and it is reported that any drug showing DND inhibitory activity in this test system can be expected to be clinically effective in humans [GENDAI-IRYO, 24, 129-133 (1992), Neurology 1987, 37, 1281-1287).
Male gerbils weighing 60-80 g were anesthetized with pentobarbital sodium 35 mg/kg i.p. and placed in supine position. After the skin in the cervical region was incised, the bilateral common carotid arteries were exposed and sutures were placed around each artery. Both ends of each suture was introduced into a polyethylene tube and in suturing the incised wound, the tube was secured to the cervical skin with the suture emerged from the other end of the tube. On the following day, with the animal under no anesthesia, both ends of the suture were gently pulled out and the carotid artery snared by the suture was urged in a bent position into the tube to thereby occlude the carotid artery. After a transient ischemic loading of 5 minutes' duration by occlusion of the bilateral common carotid arteries, the arteries were reperfused. After 7 days, the brain was excised and fixed. A section centered around the hippocampus was prepared and Nissle-stained with 0.05% cresyl violet and the pyramidal cells in the hippocampal CA-1 subfield were microscopically examined for degeneration and death. The degree of neuronal death was scored according to the following criteria.
Criteria for evaluation of neuronal death in the hippocampal CA-1 subfield

Data set [4] has as its system cerebral infarction (middle cerebral artery occlusion). The data set can be described thus: Protection of Cerebral Infarction in Rats With Middle Cerebral Artery Occlusion. The class given is in vivo, Male SD rats. The note with it: 0.125 mg/kg, intravenously after middle cerebral artery occlusion. The text has this: Protection of Cerebral Infarction in Rats With Middle Cerebral Artery Occlusion
The cerebral infarction protective effect of the compound of the invention was confirmed in a rat middle cerebral artery occlusion model. This is an animal model of brain regional ischemia which is similar to human cerebral infarction and it is known that the model is useful as a therapeutic model as well (Cerebral Apoplexy Experiment Handbook, 91-97, 1990, published by ICP). Any drug showing cerebral infarction protective activity in this test system can be expected to be clinically effective in humans.
Male SD rats aged 7-8 weeks were anesthetized with ketamin hydrochloride 120-150 mg/kg, i.p. and the head was placed in lateral recumbent position on an operation table. […] Then, the frontal sections were photographed and using an image processor, the areas of infarction were measured. The percentage of the infarct area in the frontal section 6 mm caudal to frontal rostrum, that is at the striatal level, relative to the total area of the tissue section and the total infarct area of the 5 frontal sections prepared at 2 mm intervals from the frontal rostrum was calculated and the percentage of the total infarct area relative to the total area of all the sections was calculated. […]

For data set [5], the system named is NMDA receptor. The data set can be described thus: NMDA-Induced Convulsion Inhibitory Activity. The note with it: 20 mg/kg, i.p. 30 minutes before NMDA 200 mg/kg i.p. The class given is in vivo, Mice. As to the method:
NMDA-Induced Convulsion Inhibitory Activity
Mice were intraperitoneally dosed with 200 mg/kg of N-methyl-D-aspartate (NMDA) and observed for the consequent convulsion and death over a period of 30 minutes after administration. As test drugs, the compound of Example 1, compound of Example 2, compound of Reference Example 10, and compound of Reference Example 12 were used and each was administered intraperitoneally 30 minutes before administration of NMDA.

For data set [6], the system named is delayed neuronal death. The note with it: background art; cited from earlier work.

On to `Cc1cc(OCCN2CCN(c3ccccc3)CC2)nc(-c2ccccc2)n1` [4-methyl-2-phenyl-6-[2-(4-phenylpiperazin-1-yl)ethyloxy]pyrimidine], for which the “α-sympatholytic activity (sedation, hypotension, and vasodilation)” value in data set [1] was “has α-sympatholytic activity (sedation, hypotension, and vasodilation)”.
With `Cc1nc(OCCCCCN2CCCCC2)cc(-c2ccc(F)cc2)n1.Cl` [Example 1, 4-(4-Fluorophenyl)-2-methyl-6-(5-piperidinopentyloxy)pyrimidine hydrochloride], the “general condition of animals” value in data set [2] (intraperitoneal, observed daily for 7 days) is given as “no remarkable change”. For the same molecule, the median lethal dose (LD50) at 168 h in data set [2] (rat, in vivo, ip, intraperitoneal) is 65.8 mg/kg; in data set [2] (rat, in vivo, intravenous), 22.8 mg/kg. For the same molecule, in data set [3] (50 mg/kg i.p.), the “DND inhibition (score of neuronal death in the hippocampal CA-1 subfield)” value (shortened to “DND inhibition”) is on record as 0.60. The “protection activity against the delayed neuronal death, post-ischemia dosing” value in data set [3] (single dose after a lapse of 1-2 hours after ischemia) is listed as “exhibited a protection activity against the delayed neuronal death”. Further, the “inhibition of neuronal death in the rat model of persistent brain ischemia” value in data set [4] is on record as “markedly inhibited neuronal death”. The “inhibition of NMDA-induced convulsion” value in data set [5] is given as “did not inhibit”.
Take `Cc1nc(OCCCCN2CCCCC2)cc(-c2ccc(F)cc2)n1.Cl` [Example 2, 4-(4-Fluorophenyl)-2-methyl-6-(4-piperidinobutoxy)pyrimidine hydrochloride]: the “general condition of animals” value in data set [2] (rat, in vivo, ip) is on record as “no remarkable change”. For the same molecule, the “DND inhibition” value in data set [3] (50 mg/kg i.p.) is recorded as 0.80. Also, in data set [5], the “inhibition of NMDA-induced convulsion” value is reported as “did not inhibit”.
On to `Cc1nc(OCCCCCCN2CCCCC2)cc(-c2ccc(F)cc2)n1` [Example 3, 4-(4-Fluorophenyl)-2-methyl-6-(6-piperidinohexyloxy)primidine hydrochloride], for which the “general condition of animals” value in data set [2] (rat, in vivo, ip) is recorded as “no remarkable change”. Also, in data set [3] (30 mg/kg, i.p.), the “DND inhibition” value stood at 0.60.
Take `Cc1cc(OCCCCN2CCCCC2)nc(-c2ccc(F)cc2)n1.Cl` [Example 4, 2-(4-Fluorophenyl)-4-methyl-6-(4-piperidinobutoxy)pyrimidine hydrochloride]: in data set [2] (rat, in vivo, ip), the “general condition of animals” value was “no remarkable change”. In addition, in data set [3] (50 mg/kg i.p.), the “DND inhibition” value stood at 0.60.
Take `Cc1cc(-c2ccc(F)cc2)cc(OCCCN2CCCCC2)n1.Cl` [Example 16, 4-(4-Fluorophenyl)-2-methyl-6-(3-piperidinopropoxy)pyridine hydrochloride]: the “general condition of animals” value in data set [2] (rat, in vivo, ip) is “no remarkable change”. In data set [3] (50 mg/kg i.p.), the “DND inhibition” value came to 0.60.
As for `Cc1cc(-c2ccc(F)cc2)cc(OCCCCCN2CCCCC2)n1.Cl` [Example 18, 4-(4-Fluorophenyl)-2-methyl-6-(5-piperidinopentyloxy)pyridine hydrochloride], the “general condition of animals” value in data set [2] (rat, in vivo, ip) is on record as “no remarkable change”. In data set [3] (50 mg/kg i.p.), the “DND inhibition” value worked out at 0.80.
As to `Cc1nc(OC(C)CCCN2CCCCC2)cc(-c2ccc(F)cc2)n1.Cl` (centres unmarked) [Example 21, 4-(4-Fluorophenyl)-2-methyl-6-(1-methyl-4-piperidinobutoxy)pyrimidine hydrochloride], in data set [2] (rat, in vivo, ip), the “general condition of animals” value is given as “no remarkable change”. Moreover, the “DND inhibition” value in data set [3] (50 mg/kg i.p.) turned out to be 0.60.
On to `Cc1nc(OCCCN2CCCCC2)cc(-c2ccc(F)cc2)n1.Cl` [Reference Example 10, 4-(4-Fluorophenyl)-2-methyl-6-(3-piperidinopropoxy)pyrimidine hydrochloride], for which the “general condition of animals” value in data set [2] (rat, in vivo, ip) was “no remarkable change”. The “DND inhibition” value in data set [3] (50 mg/kg i.p.) is reported as 0.60. Also, in data set [5], the “inhibition of NMDA-induced convulsion” value is reported as “did not inhibit”.
Consider `Cc1cc(OCCCN2CCCCC2)nc(-c2ccc(F)cc2)n1.Cl` [Reference Example 12, 2-(4-Fluorophenyl)-4-methyl-6-(3-piperidinopropoxy)pyrimidine hydrochloride], for which, in data set [5], the “inhibition of NMDA-induced convulsion” value is listed as “did not inhibit”.
As to `CCCn1cnc2c1c(=O)n(CCCCC(C)=O)c(=O)n2C` [propentofylline], in data set [6], the “effect against delayed neuronal death” value is on record as “effective against delayed neuronal death”.

Usually LD50 stands for the dose at which mortality reaches 50%. Higher therefore signals a less toxic substance.
